According to PubChem BioAssay (NCI):
Where “and” joins values, the source holds several entries; their conditions need not be identical. Identical values can stand only once.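 Where inhibition never reached the appropriate level, the endpoint shown equals the highest concentration tested. Otherwise, values were interpolated linearly from a five-concentration, 48-hour dose response in 96-well plates. Here, GI50 denotes the concentration required for 50% inhibition of growth. TGI: total growth inhibition.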

Tests used:
Assay in all cases: NCI tumour cell line growth inhibition, 48 h
DMS 273 small cell lung = system: DMS 273 small cell lung
XF 498 CNS = system: XF 498 CNS
M19-MEL melanoma = system: M19-MEL melanoma
BT-549 breast = system: BT-549 breast
DU-145 prostate = system: DU-145 prostate
MDA-MB-231 breast = system: MDA-MB-231 breast
PC-3 prostate = system: PC-3 prostate
NCI/ADR-RES ovarian = system: NCI/ADR-RES ovarian
T-47D breast = system: T-47D breast
MCF7 breast = system: MCF7 breast

Structure (SMILES)	TGI (DMS 273 small cell lung)	TGI (XF 498 CNS)	TGI (M19-MEL melanoma)	other results
CN(C(=O)/C=C/c1ccccc1)C1C2CN3CCC(O2)C13 (stereo not drawn)	> 100 µM	> 100 µM		
O=C(/C=C/c1ccccc1)Oc1cccc2cccnc12	45.6 µM	72.5 µM	> 100 µM	
COC(=O)C1=CO[C@@H](OC2CC(CO)C(O)C(O)C2O)[C@@H]2[C@@H](C)[C@@H](OC(=O)/C=C/c3ccccc3)[C@@H](O)[C@H]12 (stereo partly drawn) (tested in a mixture with another compound)		> 100 µM	> 100 µM	
CCOC(=O)NC(=O)c1cn(CCN2CCN(C(=O)NCCCCCCNC(=O)N3CCN(CCn4cc(C(=O)NC(=O)OCC)c(=O)[nH]c4=O)CC3)CC2)c(=O)[nH]c1=O	> 100 µM	> 100 µM	> 100 µM	
O=C(O)CCNS(=O)(=O)c1ccc(NC(=O)c2ccccc2)cc1	> 100 µM	> 100 µM	> 100 µM	
c1cc[c]([Sn][c]2ccccc2)cc1	35.9 µM	17.9 µM		GI50 (DMS 273 small cell lung): 16.8 µM; GI50 (XF 498 CNS): 13.3 µM
CC1CC(C)CC(C)C(O)/C(C#N)=C/C=C/CC(C2CCCC2C(=O)O)OC(=O)CC(O)C(C)C1 (stereo not drawn)	0.11 µM	< 0.0264 µM	0.0532 µM	GI50 (BT-549 breast): 0.0501 µM; TGI (BT-549 breast): 0.636 µM and 0.321 µM; GI50 (DU-145 prostate): 0.132 µM; TGI (DU-145 prostate): 0.659 µM and 0.896 µM; GI50 (MDA-MB-231 breast): 0.0193 µM; TGI (MDA-MB-231 breast): 0.0706 µM; GI50 (PC-3 prostate): 0.0434 µM; TGI (PC-3 prostate): 0.205 µM and 0.208 µM; GI50 (NCI/ADR-RES ovarian): 0.187 µM and < 0.0196 µM; TGI (NCI/ADR-RES ovarian): 0.265 µM; GI50 (T-47D breast): 0.00595 µM; TGI (T-47D breast): 0.049 µM and < 0.0166 µM; GI50 (MCF7 breast): 0.00614 µM; TGI (MCF7 breast): 0.0436 µM
CC[O-].CC[O-].O=C([CH-]C(=O)c1ccccc1)CCCCCCCCC(=O)[CH-]C(=O)c1ccccc1.[Ti+4]	> 100 µM	> 100 µM	> 100 µM	GI50 (DMS 273 small cell lung): > 100 µM; GI50 (M19-MEL melanoma): > 100 µM; GI50 (XF 498 CNS): > 100 µM
COC(=O)c1sc(C(=O)OC)c2c1CS(=O)C2	> 100 µM	> 100 µM	> 100 µM	
O=C1CC(CC(=O)C2CCCCC2=O)C(=O)N1 (stereo not drawn)	> 100 µM	> 100 µM	> 100 µM	
Cn1ccnc1CCc1c(Cl)cccc1Cl	> 100 µM		> 100 µM	
CC1=C(C(=O)Nc2ccccc2C)C(c2ccc(Cl)cc2)C(C(=O)Nc2ccccc2C)=C(C)N1		> 100 µM	> 100 µM	
O=C(N/N=C/c1ccccc1O)N/N=C/c1ccccc1O	> 100 µM	> 100 µM	> 100 µM	
C/C=C/C(C#N)O[Si](C)(C)C (stereo not drawn)	> 100 µM	> 100 µM	> 100 µM	
O=C(COc1ccccc1Cl)N1N=C(c2ccc(Cl)cc2)CC1(O)c1ccccc1 (stereo not drawn)	> 100 µM	> 100 µM	> 100 µM	
IC[P+]1(c2ccccc2)CCCC1	> 100 µM		81 µM	
CN1N=CSC12C(=O)N(c1ccccc1)C(=O)N2c1ccccc1 (stereo not drawn)	> 100 µM	> 100 µM	> 100 µM	
CCc1c(C#N)c(=O)[nH]c(=O)n1CCN1CCN(C(=O)NCCCCCCNC(=O)N2CCN(CCn3c(CC)c(C#N)c(=O)[nH]c3=O)CC2)CC1	> 100 µM	> 100 µM	> 100 µM	
N#CC(N)=Nc1ccccc1	> 100 µM		> 100 µM	
Cc1cc2c(C)nn(Cc3ccccc3)c2c(C(=O)O)c1C	> 100 µM	> 100 µM	> 100 µM	
O=c1ncccn1[C@@H]1O[C@H](CO)[C@H](O)C1O (stereo partly drawn)	> 100 µM	> 100 µM	> 100 µM	

Structure (SMILES)	TGI (DMS 273 small cell lung)	TGI (XF 498 CNS)	TGI (M19-MEL melanoma)	other results
Cn1c(=O)nc2n(-c3ccc(O)cc3)c3ccccc3nc-2c1=O	> 100 µM	> 100 µM	81.1 µM	
C=C(c1ccccc1)C1(O)CCCCC1N (stereo not drawn)	> 100 µM	> 100 µM	> 100 µM	
Cc1c(OC(C)C(=O)O)ccc2c(-c3ccccc3)cc(=O)oc12 (stereo not drawn)		> 100 µM	> 100 µM	
Cn1c(=O)c(N=Nc2c(=O)n(C)c(=O)n3c2[nH]c2ccccc23)c2[nH]c3ccccc3n2c1=O	> 100 µM	> 100 µM	> 100 µM	
CCc1cccc(C)c1NS(=O)(=O)c1ccccc1	> 100 µM	> 100 µM	> 100 µM	
COc1cc(Cl)cc(=O)c(O)c1OC	> 100 µM	> 100 µM	> 100 µM	
O=C1C2C3C=C4c5ccccc5N(c5ccccc5)C4(C2C(=O)N1c1ccccc1)C1C(=O)N(c2ccccc2)C(=O)C31 (stereo not drawn)		> 100 µM	> 100 µM	
C[N+](C)(C)CCC(=O)CC[N+](C)(C)C	63.6 µM	46.6 µM	54.5 µM	
Cc1ccc(S(=O)(=O)SC/C=C\CSS(=O)(=O)c2ccc(C)cc2)cc1	> 43.7 µM and 35.3 µM	> 100 µM and 43.9 µM	> 100 µM and 95.1 µM	TGI (BT-549 breast): 25.4 µM; GI50 (DMS 273 small cell lung): 3.92 µM and 18.3 µM; TGI (DU-145 prostate): > 66.9 µM; TGI (MDA-MB-231 breast): > 31.6 µM; TGI (PC-3 prostate): > 100 µM; TGI (NCI/ADR-RES ovarian): > 100 µM; TGI (T-47D breast): > 100 µM; TGI (MCF7 breast): > 77.2 µM
O=c1cc(-c2cccs2)[nH]c2cc3c(cc12)OCO3	> 100 µM	15.3 µM	> 100 µM	
CCOC(=O)Cc1nc2ccc3c(c2[nH]c1=O)C(=O)c1ccccc1C3=O	> 100 µM	> 100 µM	> 100 µM	
COC(=O)/C(=N\NC(C)(C)C)C(C(=O)OC)C(=O)C(=O)Nc1cc(Cl)ccc1Cl (stereo not drawn)	> 100 µM	> 100 µM	> 100 µM	
Cc1nc(C(N)=O)c(N)n1CCN1CCN(C(=O)CCCCCCCCCCNC2N=CNc3nc[nH]c32)CC1 (stereo not drawn)			> 100 µM	
Cc1c(/C=N/NC(=O)c2ccccc2O)c(=O)n(-c2ccccc2)n1C	> 100 µM	> 100 µM	> 100 µM	
CC(CO)Nc1cc(-c2[nH]c3cccnc3c2-c2ccc(F)cc2)ccn1 (stereo not drawn)				GI50 (BT-549 breast): 16.1 µM; TGI (BT-549 breast): > 25 µM; GI50 (DU-145 prostate): 17.6 µM; TGI (DU-145 prostate): > 25 µM; GI50 (MDA-MB-231 breast): 19.3 µM; TGI (MDA-MB-231 breast): > 25 µM; GI50 (PC-3 prostate): 21.5 µM; TGI (PC-3 prostate): > 25 µM; GI50 (NCI/ADR-RES ovarian): > 25 µM; TGI (NCI/ADR-RES ovarian): > 25 µM; GI50 (T-47D breast): 17.1 µM; TGI (T-47D breast): > 25 µM; GI50 (MCF7 breast): 9.36 µM; TGI (MCF7 breast): > 25 µM
N#CC(C#N)=C/C=C(\Cl)c1ccc(Cl)cc1				GI50 (BT-549 breast): 8.32 µM; TGI (BT-549 breast): 22 µM; GI50 (DU-145 prostate): 11.6 µM; TGI (DU-145 prostate): 29.7 µM; GI50 (MDA-MB-231 breast): 2.54 µM; TGI (MDA-MB-231 breast): 14 µM; GI50 (PC-3 prostate): 8.62 µM; TGI (PC-3 prostate): > 46.2 µM; GI50 (NCI/ADR-RES ovarian): 4.57 µM; TGI (NCI/ADR-RES ovarian): 16.2 µM; GI50 (T-47D breast): 13.8 µM; TGI (T-47D breast): 49.1 µM; GI50 (MCF7 breast): 14 µM; TGI (MCF7 breast): > 100 µM
COc1ccc2nccc(C3=CCC4CCN(C(=O)c5ccccc5)C3C4)c2c1 (stereo not drawn)	> 100 µM	> 100 µM	> 100 µM	
C1CSCCCSCCCSCCCSCCCSCCCSCCCSCCCSC1				TGI (BT-549 breast): > 100 µM; TGI (DU-145 prostate): > 100 µM; TGI (MDA-MB-231 breast): > 100 µM; TGI (PC-3 prostate): > 100 µM; TGI (NCI/ADR-RES ovarian): > 100 µM; TGI (T-47D breast): > 100 µM; TGI (MCF7 breast): > 100 µM
O=C(Nc1cccc(Cl)c1)Nn1cnnc1				GI50 (BT-549 breast): > 50 µM; TGI (BT-549 breast): > 100 µM; GI50 (DU-145 prostate): > 50 µM; TGI (DU-145 prostate): > 100 µM; GI50 (MDA-MB-231 breast): > 50 µM; TGI (MDA-MB-231 breast): > 100 µM; GI50 (PC-3 prostate): > 50 µM; TGI (PC-3 prostate): > 100 µM; GI50 (NCI/ADR-RES ovarian): > 50 µM; TGI (NCI/ADR-RES ovarian): > 100 µM; GI50 (T-47D breast): > 50 µM; TGI (T-47D breast): > 100 µM; GI50 (MCF7 breast): > 50 µM; TGI (MCF7 breast): > 100 µM
C=CCc1c(Cl)nc(Cl)nc1Cl				TGI (BT-549 breast): 0.641 µM; TGI (DU-145 prostate): 4.86 µM; TGI (MDA-MB-231 breast): 1.82 µM; TGI (PC-3 prostate): 2.92 µM; TGI (NCI/ADR-RES ovarian): > 49.4 µM; TGI (T-47D breast): 0.979 µM; TGI (MCF7 breast): 0.668 µM
Nc1ncnc2c1ncn2C1OC(CSCC(F)(F)F)C(O)C1O (stereo not drawn)	> 100 µM	> 100 µM	> 100 µM	
